Assay results published in patent US7211584B2, “5-HT7 receptor ligands” (Laboratorios del Dr. Esteve, S.A., priority 2004, dated 2007).
Where a name gives a salt, the structure may show the parent alone.

The compounds below were run against T1, Human Serotonin Receptor, Subtype 7 (h5HT7) (Homo sapiens, UniProt P34969) (assay: Radioligand binding, cloned human serotonin receptor subtype 7 (h5HT7) expressed in CHO cells, [125I]LSD). Settings: h5HT7 in CHO cells on Flashplate; [125I]LSD 0.82 nM; room temperature 240 minutes; triplicate; read-out: 5-HT7 IC-50.
T1 construct: purchased PerkinElmer 6120512; host or cells: CHO cells (membranes)
Protocol: Radioligand binding assays were performed using the Cloned Human Serotonin Receptor, Subtype 7 (h5HT7), expressed in CHO cells, coated on Flashplate (Basic FlashPlate Cat.: SMP200) from PerkinElmer (Cat.: 6120512). The protocol assay was essentially the recommended protocol in the Technical Data Sheet by PerkinEmer Life and Analytical Sciences. The Mass membrane protein/well was typically 12 μg and the Receptor/well was about 9–10 fmoles. The Flashplate were let equilibrate at room temperature for one hour before the addition of the components of the assay mixture. The binding buffer was: 50 mM Tris-HCl, pH 7.4, containing 10 mM MgCl2, 0.5 mM EDTA and 0.5% BSA. The radioligand was [^125I]LSD at a final concentration of 0.82 nM. Nonspecific binding was determined with 50 μM of Clozapine. The assay volume was 25 μl. TopSeal-A were applied onto Flashplate microplates and they were incubated at room temperature for 240 minutes in darkness. The radioactivity were quantified by liquid scintillation spectrophotometry (Wallac 1450 Microbeta Trilux) with a count delay of 4 minutes prior to counting and a counting time of 30 seconds per well. Competition binding data were analyzed by using the LIGAND program (Munson and Rodbard, LIGAND: A versatile, computerized approach for characterization of ligand-binding systems. Anal. Biochem. 107: 220–239, 1980) and assays were performed in triplicate determinations for each point.

T1 sequence (P34969 whole entry): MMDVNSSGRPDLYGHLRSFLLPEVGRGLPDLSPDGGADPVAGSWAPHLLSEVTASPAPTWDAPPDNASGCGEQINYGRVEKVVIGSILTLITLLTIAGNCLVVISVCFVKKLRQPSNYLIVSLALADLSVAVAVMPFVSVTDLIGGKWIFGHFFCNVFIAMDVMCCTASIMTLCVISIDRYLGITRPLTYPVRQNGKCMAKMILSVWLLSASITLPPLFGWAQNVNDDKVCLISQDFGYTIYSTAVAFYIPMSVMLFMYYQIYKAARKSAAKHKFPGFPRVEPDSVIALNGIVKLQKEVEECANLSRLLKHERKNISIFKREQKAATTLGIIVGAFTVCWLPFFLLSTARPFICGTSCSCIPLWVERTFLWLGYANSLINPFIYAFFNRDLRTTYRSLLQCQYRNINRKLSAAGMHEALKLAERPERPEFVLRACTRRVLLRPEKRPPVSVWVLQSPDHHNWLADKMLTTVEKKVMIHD

Going from `O=S(=O)(NCCCN1CCc2ccccc2C1)c1cccc2ccccc12` [Compound 33, Naphthalene-1-sulfonic acid[3-(3,4-dihydro-1H-isoquinolin-2-yl)-propyl]-amide hydrochloride] to `O=S(=O)(NCCCN1CCc2ccccc2C1)c1ccccc1` [Compound 35, N-[3-(3,4-Dihydro-1H-isoquinolin-2-yl)-propyl]-benzenesulfonamidehydrochloride], the IC50 falls from 384 nM to 136 nM (2.8-fold). The second is the more potent here.

`COc1cc(C)c(S(=O)(=O)NCCCN2CCc3ccccc3C2)c(C)c1C` [Compound 40, N-[3-(3,4-Dihydro-1H-isoquinolin-2-yl)-propyl]-4-methoxy-2,3,6-trimethyl-benzenesulfonamidehydrochloride] and `COc1cc2c(cc1OC)CN(CCCNS(=O)(=O)c1cc(Cl)ccc1Cl)CC2` [Compound 43, 2,5-Dichloro-N-[3-(6,7-dimethoxy-3,4-dihydro-1H-isoquinolin-2-yl)-propyl]-benzenesulfonamidehydrochloride] are within 1.5-fold of each other in IC50: 112 nM for the first, 89.5 nM for the second.

Compound `COc1cc2c(cc1OC)CN(CCCNS(=O)(=O)c1cc(Cl)c(F)cc1F)CC2` [Compound 48, 5-Chloro-N-[3-(6,7-dimethoxy-3,4-dihydro-1H-isoquinolin-2-yl)-propyl]-2,4-difluoro-benzenesulfonamide] has an IC50 of 64.8 nM.
